“Also recorded” adds a separate entry of the source.
Legend:
[1] = test system: LC3; test: LC3 level in day 30 DaNs after PEP treatment (western blot); assay type: cell-based, human; conditions: PD cells
[2] = Dose ranging study in mini-pig; assay type: in vivo; conditions: pigs
Procedure: For dose ranging studies in rat and mini-pig. Repeated doses up to 15 ug/kg/day for 7 days were tolerated in rats, 5 ug/kg in pigs

[3] = test system: TH; test: Injection into the ventricles of WT mice, TH in striatum; assay type: in vivo, mouse; conditions: 0.3, 3, and 30 uM injected into ventricles of WT mice; 1 and 5 days post injection
Procedure: In vivo, PEP stimulates synuclein degradation. Dosage studies of 0.3, 3, and 30 uM PEP was injected into the ventricles of WT mice.

[4] = test system: cleaved caspase 3 (CC3); test: Cleaved caspase 3 in mDA cultures over PEP005 time-course (western blot); assay type: cell-based, human; conditions: PD/EOSPD cultures, PEP005 treatment
Procedure: Western blot: Cells were gently scraped off the plates, washed with PBS, centrifuged at 15000 RPM for 1 min, and dry pellets were frozen at −80° C. Samples were then thawed and lysed using 1×NETN buffer (20 mM Tris-HCl (pH 8.0), 100 mM NaCl, 0.5 mM EDTA and 0.5% NP-40) supplemented with phosphatase/protease inhibitor cocktail (MS-SAFE, Sigma-Aldrich). Lysates were sonicated in an automated cold bath sonicator for 20 mins using alternating 10 sec pulses followed by 10 sec rests. Samples were centrifuged for 20 min at 4° C. at 15000 RPM. Total soluble protein concentrations were measured using a Bradford assay (BIO-RAD). 4× Laemmli sample buffer (BIO-RAD 161-0774) was added to either 100 μg or 50 μg of total protein extracts and samples were boiled for 5 min. […] Membranes were blocked with Odyssey blocking buffer (LI-COR) and then incubated with primary antibodies for overnight at 4° C. or room temperature for 3 hours. Following incubation with dye-labeled secondary antibodies for 2 hours at room temperature, signals were visualized using an Odyssey Fc imaging system (LI-COR). […] Combined α-synuclein and p-PKCα expression plots were calculated by first normalizing bands to β-actin, then to the 02iCTR signal present in each blot. […] ROC plot and area under the curve was determined using R package ROCR to determine predicative probability percentages.

[5] = In vitro blood plasma binding, human; assay type: in vitro ADME
Excerpt: (§1) This may complicate IV delivery.

[6] = In vitro blood plasma binding, rat; assay type: in vitro ADME
Excerpt: as §1

[7] = test system: p-PKCα
[8] = test system: DaN cultures; test: LDH on drug treatment of DaN cultures; assay type: cell-based, human
Excerpt: It is likely that the toxicity of PEP is more specific to highly proliferative cells whereas the Inventors' differentiated neurons are largely post mitotoic.

[9] = IV bolus dose study, cardiovascular effects in mini-pig; assay type: in vivo; conditions: doses up to 5 ug/kg (highest tested)
Excerpt: In multiple IV bolus dose studies, the following was observed.

C/C=C(/C)C(=O)O[C@H]1C(C)=C[C@]23C(=O)[C@@H](C=C(CO)[C@@H](O)[C@]12O)[C@H]1[C@@H](C[C@H]3C)C1(C)C [PEP005, ingenol-3-angelate]
LC3 response [1]: neither LAMP1 nor LC3 respond | tolerated repeated dose [2]: ≤ 5 µg/kg | TH in mouse striatum [3]: increase | cleaved (active) caspase 3 (CC3) [4]: marked decrease | cleaved (active) caspase 3 (CC3) ([4]; listed as PEP): marked decrease | plasma binding [5]: highly efficient plasma binding | plasma binding [6]: highly efficient plasma binding | p-PKCα signal (western blot) ([7]; control and PD cultures / all iPSC lines, 1 μM PEP005 for 3 days): completely ablate; also recorded: completely ablating; also recorded: clearly ablated | p-PKCα expression, dose response ([7]; dose response study, 172iPD mDA culture): clear dose-response relationship | p-PKCα levels at low PEP005 doses ([7]; dose response study, low doses): did not alter | time post dose at which pPKCα levels were still depressed ([7]; in vitro, single 24-hour dose): ≥ 240 hours | time until p-PKCα is degraded in response to drug treatment ([7]; time-course, control and PD cultures): ≤ 24 h | LDH on drug treatment [8]: nor do the Inventors see an increase | cardiovascular changes [9]: no notable cardiovascular changes | clinical or behavioral effects [9]: no adverse clinical or behavioral effects

Reference: patent US12564568B2, “PKC pathway in Parkinson's Disease” (CEDARS-SINAI MEDICAL CENTER, priority 2018, dated 2026)
